# Assay results from patent US20030159159A1, “Human nerve growth factor exon 1 and exon 3 promoters” (priority 1997, published 2003).
# Legend:
# [1] = tested on: human nerve growth factor exon 1 promoter KE (pNE1KE) in UC11 cells; experiment: Luciferase assay, UC11 stable cell lines with pNE1KE (human NGF exon 1 promoter KE); assay type: cell-based; settings: serum deprivation 48-56 hours, 18 hr treatment: serum 10% horse serum, PMA 1 μM, calcitriol 10 nM, mean ± SEM, 6 cell lines in triplicate, read-out: Fold induction over vehicle controls without serum (luciferase), UC11 Human Exon 1 KE
# Source text: (§1) DNA for the human nerve growth factor exon 1 clones was originally identified by PCR screening a human P1 genomic library (clone 1226-G9, Genome Systems). A ˜14,000 bp fragment containing exon 1 was cloned into a pBS SK+ vector to yield the plasmid identified as pBSEx1. Two overlapping fragments were isolated from the insert in pBSEx1 and subcloned into a pGL3neo vector. The largest construct containing human nerve growth factor exon 1 is 2846 bp and is identified as pNE1KS. The second subclone from pBSEx1, identified as pNE1KE, contains the same 5′ end as pNE1KS and is truncated on the 3′ end in exon 1, resulting in an insert that is 2234 bp. pNE1KS and pNE1KE were transfected into mouse L929 cells and human UC 11 cells to generate the data in Table 1. […]
# (§2) Cells were plated at 5,000 cells/well in 96 well dishes in serum containing media described above. […] Cells were treated with 1 μM PMA, 10 nM calcitriol or 10% horse serum and luciferase activity was determined 18 hours later using a Promega kit (catalog #E1500). […] Luciferase activity was detected in a MicroLumat LB 96 P luminometer (Wallac Inc, Gaithersburg, Md.) for 10 seconds following automatic injection of 100 μl 470 μM luciferin.
# [2] = tested on: human nerve growth factor exon 1 promoter KS (pNE1KS) in UC11 cells; experiment: Luciferase assay, UC11 stable cell lines with pNE1KS (human NGF exon 1 promoter KS); assay type: cell-based; settings: serum deprivation 48-56 hours, 18 hr treatment: serum 10% horse serum, PMA 1 μM, calcitriol 10 nM, mean ± SEM, 6 cell lines in triplicate, read-out: Fold induction over vehicle controls without serum (luciferase), UC11 Human Exon 1 KS
# Source text: as §1, §2
# [3] = tested on: human nerve growth factor exon 1 promoter KE (pNE1KE) in L929 cells; experiment: Luciferase assay, L929 stable cell lines with pNE1KE (human NGF exon 1 promoter KE); assay type: cell-based; settings: serum deprivation 48-56 hours, 18 hr treatment: serum 10% horse serum, PMA 1 μM, calcitriol 10 nM, mean ± SEM, 6 cell lines in duplicate, read-out: Fold induction over vehicle controls without serum (luciferase), L929 Mouse Exon 1 KE
# Source text: as §1, §2
# [4] = tested on: human nerve growth factor exon 1 promoter KS (pNE1KS) in L929 cells; experiment: Luciferase assay, L929 stable cell lines with pNE1KS (human NGF exon 1 promoter KS); assay type: cell-based; settings: serum deprivation 48-56 hours, 18 hr treatment: serum 10% horse serum, PMA 1 μM, calcitriol 10 nM, mean ± SEM, 6 cell lines in duplicate, read-out: Fold induction over vehicle controls without serum (luciferase), L929 Mouse Exon 1 KS
# Source text: as §1, §2
# [5] = tested on: human nerve growth factor exon 3 promoter (pGL2Ex3) in L929 cells; experiment: Luciferase assay, L929 stable cell line with pGL2Ex3 (human NGF exon 3 promoter); assay type: cell-based; settings: serum deprivation 48-56 hours, 18 hr treatment: serum 10% horse serum, PMA 1 μM, calcitriol 10 nM, mean ± SEM, 1 cell line n = 11-17, read-out: Fold induction over vehicle controls without serum (luciferase), L929 Mouse Exon 3
# Source text: (§3) DNA for the human nerve growth factor exon 3 clones was originally identified by PCR screening a human P1 genomic library (clone 0095-B8, Genome Systems). A ˜6600 bp fragment containing exon 3 was cloned into a pBS SK+ vector to yield the plasmid identified as pBSEx3. A 4329 bp fragment was isolated from the insert in pBSEx3 and subcloned into a pGL2 enhancer vector (Promega) and a pGL3 basic vector (Promega) to yield clones identified as pGL2Ex3 and pGL3Ex3, respectively. The pGL2Ex3 was transfected into mouse L929 cells and the pGL3Ex3 vector was transfected into human UC11 cells to generate the data in Table 1.
# L929 mouse fibroblast cells (ATCC, Rockville, Md.) were grown in Dulbecco's modified Eagle's medium (DMEM) containing 10% horse serum, penicillin (50 μg/ml), streptomycin (50 μg/ml), neomycin (100 μg/ml), and glutamine (1 mM). Cells were maintained at 37° C. in 5% CO2, fed every 3-4 days and passaged once per week. […]
# as §2
# [6] = tested on: human nerve growth factor exon 3 promoter (pGL3Ex3) in UC11 cells; experiment: Luciferase assay, UC11 stable cell line with pGL3Ex3 (human NGF exon 3 promoter); assay type: cell-based; settings: serum deprivation 48-56 hours, 18 hr treatment: serum 10% horse serum, PMA 1 μM, calcitriol 10 nM, mean ± SEM, 1 cell line n = 11-17, read-out: Fold induction over vehicle controls without serum (luciferase), UC11 Human Exon 3
# Source text: as §3
# UC11 human astrocytoma cells (Liwnicz, et. al. 1986) were grown in RPMI 1640 containing 10% fetal bovine serum, 20 mM HEPES, penicillin (50 μg/ml), streptomycin (50 μg/ml), neomycin (100 μg/ml), and glutamine (1 mM). Cells were maintained at 37° C. in 5% CO2, fed every 3-4 days and passaged once per week. […]
# as §2
# [7] = tested on: wild type cells; experiment: G418 concentration curve on wild type cells; assay type: cell-based; settings: in 13 days
# Procedure: Since geneticin (G418) resistance would be used as a selection tool, a G418 concentration curve was done and it was determined that 600 μg/ml was the minimum concentration G418 necessary to kill all the wild type cells in 13 days.
# [8] = tested on: mouse L929 fibroblasts; settings: cited from earlier work
# [9] = tested on: primary glial cells; settings: cited from earlier work
# [10] = tested on: ROS 17/2.8 osteoblastic cells; settings: cited from earlier work
smiles,measurement,setting,value
"C=C1/C(=C\C=C2/CCC[C@]3(C)[C@@H]([C@H](C)CCCC(C)(C)O)CC[C@@H]23)C[C@@H](O)C[C@@H]1O [CALCITRIOL, calcitriol]",fold induction at 0.01 µM,[1],1.01 ± 0.23
same,fold induction at 0.01 µM,[2],0.86 ± 0.03
same,fold induction at 0.01 µM,[3],0.71
same,fold induction at 0.01 µM,[4],0.67
same,fold induction at 0.01 µM,[5],0.73
same,fold induction at 0.01 µM,[6],0.98
"CN[C@@H]1[C@@H](O)[C@@H](O[C@@H]2[C@@H](O)[C@H](O[C@H]3O[C@H]([C@@H](C)O)[C@@H](O)[C@H](O)[C@H]3N)[C@@H](N)C[C@H]2N)OC[C@]1(C)O [G418, geneticin]",minimum concentration G418 necessary to kill all the wild type cells,[7],600 µg/mL
"CCCCCCCCCCCCCC(=O)O[C@@H]1[C@@H](C)[C@@]2(O)[C@@H](C=C(CO)C[C@]3(O)C(=O)C(C)=C[C@@H]23)[C@@H]2C(C)(C)[C@]12OC(C)=O [PMA, phorbol 12-myristate 13-acetate]",effect on synthesis of NGF,[8],enhances the synthesis of NGF
same,effect on synthesis of NGF,[9],enhances the synthesis of NGF
same,effect on NGF expression,[10],suppresses expression
